{
  "source": "ChEMBL document CHEMBL1150628",
  "about": "“Cytotoxic beta-carbolines and cyclic peroxides from the Palauan sponge Plakortis nigra” (J Nat Prod, 2002)",
  "data": [
    {"test_system": "HCT-116", "assay": "Cytotoxicity against human HCT116 cells", "type": "functional, cell-based", "units": {"IC50": "µM"}, "values": [
      {"smiles": "C[C@H]1C[C@@](C)(CCCCCCCCCCCCc2ccccc2)OC1=O", "note": "(relative stereo)", "IC50": 14.5},
      {"smiles": "CN(C)CCc1nccc2c1[nH]c1cc(Br)ccc12", "note": "[PLAKORTAMINE A]", "IC50": 3.2},
      {"smiles": "C=Cc1nccc2c1[nH]c1cc(Br)ccc12", "note": "[PLAKORTAMINE B]", "IC50": 0.62},
      {"smiles": "CN(CCc1nccc2c1[nH]c1cc(Br)ccc12)CCc1nccc2c1[nH]c1cc(Br)ccc12", "note": "[PLAKORTAMINE C]", "IC50": 2.15},
      {"smiles": "CN1CCC(c2nccc3c2[nH]c2cc(Br)ccc23)O1", "note": "(stereo not given) [PLAKORTAMINE D]", "IC50": 15}
    ]}
  ]
}
